Measured values from patent US12209079B2 (GENERAL INCORPORATED ASSOCIATION PHARMA VALLEY PROJECT …, priority 2017, dated 2025).
Where a name gives a salt, the structure may show the parent alone.

Columns and labels:
[1] = target: rhIDO (recombinant human IDO) (Homo sapiens, UniProt P14902); assay: Enzyme assay using rhIDO (rate of kynurenine production); type: biochemical; settings: 2 h, read-out: rhIDO-mediated kynurenine production; for remaining activity at 10 µM: final concentration of the compound 10 μM, rate relative to reaction without compound
Chain of rhIDO (recombinant human IDO) (P14902 whole entry): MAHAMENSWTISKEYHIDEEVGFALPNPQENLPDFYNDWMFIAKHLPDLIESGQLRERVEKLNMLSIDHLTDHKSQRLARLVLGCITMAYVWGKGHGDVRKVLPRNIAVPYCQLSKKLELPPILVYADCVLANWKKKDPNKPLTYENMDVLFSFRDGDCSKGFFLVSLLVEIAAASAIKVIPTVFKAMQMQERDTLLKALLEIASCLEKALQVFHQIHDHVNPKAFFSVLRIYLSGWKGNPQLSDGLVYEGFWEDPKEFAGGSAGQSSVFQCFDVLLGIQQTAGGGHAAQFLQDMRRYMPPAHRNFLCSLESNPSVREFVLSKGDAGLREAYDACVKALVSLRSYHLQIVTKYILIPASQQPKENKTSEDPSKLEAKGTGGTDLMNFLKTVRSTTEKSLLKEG
Method in brief: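 Kynurenine formation, expressed as % of uncompounded reaction after background subtraction, was read by absorbance at 490 nm following TCA stop, 50 °C hydrolysis and Ehrlich-type p-dimethylbenzaldehyde staining. Recombinant human IDO with ascorbate/methylene blue/catalase was pre-exposed to compound 10 min, then reacted 120 min at 37 °C after adding 2 mM tryptophan stock.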

[2] = target: rhTDO (recombinant human TDO) (Homo sapiens, UniProt P48775); assay: Enzyme assay using rhTDO (rate of kynurenine production); type: biochemical; settings: 2 h, read-out: rhTDO-mediated kynurenine production; for remaining activity at 10 µM: final concentration of the compound 10 μM, rate relative to reaction without compound
Chain of rhTDO (recombinant human TDO) (P48775 whole entry): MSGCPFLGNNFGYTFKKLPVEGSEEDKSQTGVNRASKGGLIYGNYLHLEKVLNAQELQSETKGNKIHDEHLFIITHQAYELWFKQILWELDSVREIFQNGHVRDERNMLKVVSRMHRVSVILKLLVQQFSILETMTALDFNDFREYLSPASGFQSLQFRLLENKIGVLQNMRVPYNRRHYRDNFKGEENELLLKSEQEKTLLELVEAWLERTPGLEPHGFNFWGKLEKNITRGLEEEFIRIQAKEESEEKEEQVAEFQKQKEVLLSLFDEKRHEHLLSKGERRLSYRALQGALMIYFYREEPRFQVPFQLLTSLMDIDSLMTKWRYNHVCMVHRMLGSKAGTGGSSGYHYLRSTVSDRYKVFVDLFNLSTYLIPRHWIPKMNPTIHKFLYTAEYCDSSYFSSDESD
Method in brief: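 Kynurenine output, as percent of untreated control after background subtraction, read at 490 nm with p-dimethylbenzaldehyde following TCA quench and 15 min heating at 50 °C. Reaction: rhTDO with compound, 10 min preincubation then 120 min at 37 °C, started by 20 mM tryptophan stock, in phosphate/ascorbate/methylene blue/catalase.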

IDO in A431 cells = target: T1, IDO in A431 cells (Homo sapiens, UniProt P14902); assay: IDO cell-based assay, kynurenine production in IFN-γ stimulated A431 cells; settings: A-431, 24 h; final concentration of the compound 10 μM; rate relative to culture without compound
T1 construct: endogenous in cells; host or cells: A431 cells, IFN-γ stimulated
T1 sequence (P14902 whole entry): as the sequence (P14902 whole entry) above
Method in brief: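 Kynurenine output was read by absorbance at 460 nm after p-dimethylbenzaldehyde/trichloroacetic acid reagent, background-corrected, and given as % of untreated wells. Before the read, cells in 178 μM L-tryptophan medium had 1 h compound preincubation, then 24 h IFN-γ stimulation (added as 100 ng/mL dilution).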

TDO in A172 cells = target: T2, TDO in A172 cells (Homo sapiens, UniProt P48775); assay: TDO cell-based assay, kynurenine production in A172 cells; settings: A 172; final concentration of the compound 10 μM; rate relative to culture without compound
T2 construct: endogenous in cells; host or cells: A172 cells
T2 sequence (P48775 whole entry): as the sequence (P48775 whole entry) above
Method in brief: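 A172 cells were preincubated with compound for 1 h, then given L-tryptophan (final 524 μM) for 24 h at 37 °C. Kynurenine was read at 460 nm after p-dimethylbenzaldehyde/TCA reagent, background-subtracted, and expressed as % of no-compound production.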

[3] = final concentration of the compound 3 μM (data with *)

Row | SMILES | remaining activity at 10 µM [1] | remaining activity at 10 µM [2] | remaining activity at 10 µM (IDO in A431 cells) | remaining activity at 10 µM (TDO in A172 cells) | remaining activity at 3 µM [2, 3] | remaining activity at 3 µM [1, 3]
1 | FC(F)(F)c1ccc(CSC2=NCN(CCc3ccccc3Cl)CN2)c(CSC2=NCN(CCc3ccccc3Cl)CN2)c1 [Compound 48, 6,6′-(((4-(Trifluoromethyl)-1,2-phenylene)bis(methylene))bis(sulfanediyl))bis(3-(2-chlorophenethyl)-1,2,3,4-tetrahydro-1,3,5-triazine)] | 80% | 73% | 63% | 71% | – | –
2 | N=C(N)SCCc1ccccc1CSC(=N)N [Compound 51, 2-(2-(Carbamimidoylthio)ethyl)benzyl carbamimidothioate dihydrobromide] | 19% | 13% | 23% | 25% | – | –
3 | Clc1ccccc1CCN1CN=C(SCc2ccc(Br)cc2CSC2=NCN(CCc3ccccc3Cl)CN2)NC1 [Compound 53, 6,6′-(((4-Bromo-1,2-phenylene)bis(methylene))bis(sulfanediyl))bis(3-(2-chlorophenethyl)-1,2,3,4-tetrahydro-1,3,5-triazine)] | 16% | 19% | 5% | 17% | – | –
4 | Clc1ccc(CN2CN=C(SCc3ccc(Br)cc3CSC3=NCN(Cc4ccc(Cl)c(Cl)c4)CN3)NC2)cc1Cl [Compound 54, 6,6′-(((4-Bromo-1,2-phenylene)bis(methylene))bis(sulfanediyl))bis(3-(3,4-dichlorobenzyl)-1,2,3,4-tetrahydro-1,3,5-triazine)] | 13% | 14% | 4% | 6% | – | –
5 | COC(=O)c1ccccc1CSC(=N)N [Compound 55, Methyl 2-((carbamimidoylthio)methyl)benzoate hydrochloride] | 91% | 111% | 73% | 121% | – | –
6 | Clc1ccc(CN2CN=C(SCc3cc(Cl)c(Cl)cc3CSC3=NCN(Cc4ccc(Cl)c(Cl)c4)CN3)NC2)cc1Cl [Compound 56, 6,6′-(((4,5-Dichloro-1,2-phenylene)bis(methylene))bis(sulfanediyl))bis(3-(3,4-dichlorobenzyl)-1,2,3,4-tetrahydro-1,3,5-triazine)] | 41% | 35% | 4% | 2% | – | –
7 | Brc1ccc(CS/C(=N/C2CCCCC2)NC2CCCCC2)c(CS/C(=N/C2CCCCC2)NC2CCCCC2)c1 [Compound 57, (4-Bromo-1,2-phenylene)bis(methylene) (E,E)-bis(N,N′-dicyclohexylcarbamimidothioate) dihydrobromide] | 83% | 80% | 3% | 12% | – | –
8 | c1ccc(CS/C(=N/C2CCCCC2)NC2CCCCC2)c(CS/C(=N/C2CCCCC2)NC2CCCCC2)c1 [Compound 58, 1,2-Phenylenebis(methylene) (E,E)-bis(N,N′-dicyclohexylcarbamimidothioate) dihydrobromide] | 73% | 83% | 1% | 9% | – | –
9 | NC(=O)SCc1ccccc1CS/C(N)=N/c1ccc(F)c(Cl)c1 [Compound 59, (E)-S-(2-(((N′-(3-Chloro-4-fluorophenyl)carbamimidoyl)thio)methyl)benzyl) carbamothioate hydrobromide] | -3% | 1% | 1% | 4% | – | –
10 | Brc1ccc(CSC2=NCN(CCC3CCCCC3)CN2)c(CSC2=NCN(CCC3CCCCC3)CN2)c1 [Compound 60, 6,6′-(((4-Bromo-1,2-phenylene)bis(methylene))bis(sulfanediyl))bis(3-(2-cyclohexylethyl)-1,2,3,4-tetrahydro-1,3,5-triazine)] | 6% | 6% | 1% | 4% | – | –
11 | Clc1cc(CSC2=NCN(CCC3CCCCC3)CN2)c(CSC2=NCN(CCC3CCCCC3)CN2)cc1Cl [Compound 61, 6,6′-(((4,5-Dichloro-1,2-phenylene)bis(methylene))bis(sulfanediyl))bis(3-(2-cyclohexylethyl)-1,2,3,4-tetrahydro-1,3,5-triazine)] | 7% | 4% | 1% | -11% | – | –
12 | CNC(=O)Cc1ccccc1CSC(=N)N [Compound 62, 2-(2-(Methylamino)-2-oxoethyl)benzyl carbamimidothioate hydrobromide] | 58% | 21% | 86% | 56% | – | –
13 | N/C(=N\c1ccc(F)cc1F)SCc1cc(Cl)c(Cl)cc1CS/C(N)=N/c1ccc(F)cc1F [Compound 63, (4,5-Dichloro-1,2-phenylene)bis(methylene) (E,E)-bis(N′-(2,4-difluorophenyl)carbamimidothioate) dihydrobromide] | 0% | – | 2% | 5% | 16% | –
14 | N=C(N)SCc1ccccc1CC(=O)NCCc1ccccc1 [Compound 64, 2-(2-Oxo-2-(phenethylamino)ethyl)benzyl carbamimidothioate hydrobromide] | 81% | 42% | 102% | 76% | – | –
15 | N=C(N)SCc1ccccc1CC(=O)NCC1CCCCC1 [Compound 65, 2-(2-((Cyclohexylmethyl)amino)-2-oxoethyl)benzyl carbamimidothioate hydrobromide] | 89% | 76% | 104% | 94% | – | –
16 | N=C(N)SCc1ccccc1CC(=O)NCCc1ccccc1Cl [Compound 66, 2-(2-((2-chlorophenethyl)amino)-2-oxoethyl)benzyl carbamimidothioate hydrobromide] | 80% | 49% | 101% | 74% | – | –
17 | N#Cc1ccc(CNC(=O)Cc2ccccc2CSC(=N)N)cc1 [Compound 67, 2-(2-((4-Cyanobenzyl)amino)-2-oxoethyl)benzyl carbamimidothioate hydrobromide] | 39% | 46% | 36% | 64% | – | –
18 | N=C(N)SCc1ccccc1CC(=O)NCCc1ccc(Cl)cc1 [Compound 68, 2-(2-((4-Chlorophenethyl)amino)-2-oxoethyl)benzyl carbamimidothioate hydrobromide] | 82% | 31% | 101% | 81% | – | –
19 | N=C(N)SCc1ccccc1CC(=O)NCCC1CCCCC1 [Compound 69, 2-(2-((2-Cyclohexylethyl)amino)-2-oxoethyl)benzyl carbamimidothioate hydrobromide] | 76% | 60% | 101% | 73% | – | –
20 | N=C(N)SCc1ccccc1CC(=O)NCCc1ccc(Cl)c(Cl)c1 [Compound 70, 2-(2-((3,4-Dichlorophenethyl)amino)-2-oxoethyl)benzyl carbamimidothioate hydrobromide] | 72% | 35% | 98% | 96% | – | –
21 | N=C(N)SCc1ccccc1CC(=O)NCC1CC1 [Compound 71, 2-(2-((Cyclopropylmethyl)amino)-2-oxoethyl)benzyl carbamimidothioate hydrobromide] | 87% | 67% | 96% | 77% | – | –
22 | N=C(N)SCc1ccccc1CC(=O)NCCCCc1ccccc1 [Compound 72, 2-(2-Oxo-2-((4-phenylbutyl)amino)ethyl)benzyl carbamimidothioate hydrobromide] | 70% | 47% | 69% | 68% | – | –
23 | Clc1cc(CSC2=NCN(CC3CC3)CN2)c(CSC2=NCN(CC3CC3)CN2)cc1Cl [Compound 73, 6,6′-(((4,5-Dichloro-1,2-phenylene)bis(methylene))bis(sulfanediyl))bis(3-(cyclopropylmethyl)-1,2,3,4-tetrahydro-1,3,5-triazine)] | – | 4% | 4% | -3% | – | 29%
